According to PMC5052628, “Fragment-based de novo design of a cystathionine γ-lyase selective inhibitor blocking hydrogen sulfide production” (Scientific Reports, 2016):

Assays:
[1] = biological target: T1, cystathionine-γ-lyase (CSE) (Homo sapiens, UniProt P32929); assay: methylene blue H2S assay, secondary plot of Lineweaver-Burk slopes; type: biochemical
T1 construct: gene CTH; N-terminal GST fusion (pGEX-4T3), expressed in E. coli BL21(DE3) Codon Plus; eluted with reduced GSH, no tag cleavage described
T1 sequence (P32929 whole entry, the tested form may be a part): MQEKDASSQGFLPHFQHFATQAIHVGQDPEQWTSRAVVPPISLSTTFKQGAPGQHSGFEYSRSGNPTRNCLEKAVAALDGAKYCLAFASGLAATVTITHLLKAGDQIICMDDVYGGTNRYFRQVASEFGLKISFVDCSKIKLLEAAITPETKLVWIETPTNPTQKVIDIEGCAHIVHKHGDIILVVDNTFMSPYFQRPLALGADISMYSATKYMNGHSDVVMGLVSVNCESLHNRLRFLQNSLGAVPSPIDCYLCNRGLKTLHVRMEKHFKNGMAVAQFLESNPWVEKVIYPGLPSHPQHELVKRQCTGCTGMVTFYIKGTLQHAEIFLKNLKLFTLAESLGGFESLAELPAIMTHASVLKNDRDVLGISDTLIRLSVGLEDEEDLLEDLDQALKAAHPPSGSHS

[2] = biological target: T1, cystathionine-γ-lyase (CSE); assay: methylene blue H2S assay, concentration-response; type: biochemical
[3] = biological target: T2, cystathionine-ß-synthase (CBS) (Homo sapiens, UniProt P35520); assay: absorbance spectroscopy; type: binding; conditions: bound at Lys119
T2 construct: N-terminal GST fusion (pGEX-Kg), expressed in E. coli BL21(DE3) Codon Plus; eluted with reduced GSH, no tag cleavage described; homotetramer
T2 sequence (P35520 1-551): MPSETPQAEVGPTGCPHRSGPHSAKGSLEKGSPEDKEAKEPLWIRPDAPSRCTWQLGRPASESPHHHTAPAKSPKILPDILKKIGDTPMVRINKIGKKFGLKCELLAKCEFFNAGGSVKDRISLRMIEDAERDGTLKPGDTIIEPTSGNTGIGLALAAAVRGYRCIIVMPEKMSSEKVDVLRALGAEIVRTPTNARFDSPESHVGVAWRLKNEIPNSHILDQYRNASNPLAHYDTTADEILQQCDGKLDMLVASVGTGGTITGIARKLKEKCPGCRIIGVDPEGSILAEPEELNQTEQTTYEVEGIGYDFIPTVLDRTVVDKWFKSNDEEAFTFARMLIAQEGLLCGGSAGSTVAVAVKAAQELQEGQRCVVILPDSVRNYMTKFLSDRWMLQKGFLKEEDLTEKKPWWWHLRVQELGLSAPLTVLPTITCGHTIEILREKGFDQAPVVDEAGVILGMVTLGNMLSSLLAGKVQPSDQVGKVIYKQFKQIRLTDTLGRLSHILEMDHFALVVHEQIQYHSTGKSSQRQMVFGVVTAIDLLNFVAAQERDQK

[4] = biological target: T1, cystathionine-γ-lyase (CSE); assay: absorbance spectroscopy; type: binding; conditions: covalently attached to Lys212

SMILES | Ki [1] [µM] | IC50 [2] [µM] | absorbance spectroscopy [3] | absorbance spectroscopy [4]
C#CCNC(=O)[C@@H]1CSC(=O)N1 [2a, compound 2a] | 13 | 6.3 ± 1 |  | 
C#CCC(N)C(=O)O (centres unmarked) [PAG] |  | 42.2 ± 1.1 |  | 
Cc1ncc(COP(=O)(O)O)c(C=O)c1O [PLP] |  |  | enzymes are correctly folded and bind the respective prosthetic groups | enzymes are correctly folded and bind the respective prosthetic groups
